The target in one test is Factor XIa (Homo sapiens (Human), UniProt P03951). The experiment in a line: Factor XIa inhibition assay (FLINT) utilizing a fluorophore-quencher pair peptide substrate. It is filed as biochemical. The settings on record: 30 min preincubation, kinetic reads over 30 min, 5Fam-KLTRAETV-K5Tamra substrate 15 μM; read-out: FXIa Kin Inh IC50. An outline of the steps:
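FXIa ([…]) preincubated 30 min with compound (11-point 3-fold dilution, top 100 nM, 2% DMSO), then 15 μM quenched FXI Arg146-based peptide added; Tris pH 7.5, CaCl2, BSA, CHAPS. Fluorescence 485/520 nm read kinetically every 5 min over 30 min at RT; IC50 by 4-parameter fit.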

The target in a further test is human plasma kallikrein (Homo sapiens (Human), UniProt P03952). The experiment in a line: Kallikrein inhibition assay (FLINT) utilizing a quenched AMC peptide substrate. It is filed as biochemical. The settings on record: 30 min preincubation, kinetic reads over 30 min, Z-Gly-Pro-Arg-AMC substrate 50 μM; read-out: Kallikrein Kin Inh IC50. In a few lines: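 Fluorogenic Z-Gly-Pro-Arg-AMC cleavage (50 μM substrate, 2 nM kallikrein, Tris pH 7.5, CaCl2, BSA, CHAPS, 2% DMSO) read kinetically at 340/440 nm for 30 min after 30-min compound pre-incubation. Compounds in 11-point 3-fold series from 1 μM; percent inhibition fitted to four-parameter equation for IC50.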

This passage reports IC50 results from patent US20230295157A1, “3-(1H-IMIDAZOL-2-YL)-2,3,8,8A-TETRAHYDROINDOLIZIN-5(1H)-ONE DERIVATIVES USEFUL AS FACTOR XIA INHIBITORS” (JANSSEN PHARMACEUTICA NV, priority 2020, published 2023).

The IC50 is the point on the concentration scale where inhibition reaches its midpoint.

Sequence of human plasma kallikrein (P03952 391-638): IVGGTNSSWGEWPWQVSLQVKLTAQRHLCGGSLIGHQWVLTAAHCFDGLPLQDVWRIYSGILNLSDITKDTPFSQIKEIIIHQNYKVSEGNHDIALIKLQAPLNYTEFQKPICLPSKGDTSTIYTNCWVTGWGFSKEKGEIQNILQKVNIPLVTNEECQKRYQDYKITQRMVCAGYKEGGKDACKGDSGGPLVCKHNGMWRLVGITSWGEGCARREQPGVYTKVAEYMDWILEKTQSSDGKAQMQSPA
Sequence of human plasma kallikrein (P03952 20-390 partner): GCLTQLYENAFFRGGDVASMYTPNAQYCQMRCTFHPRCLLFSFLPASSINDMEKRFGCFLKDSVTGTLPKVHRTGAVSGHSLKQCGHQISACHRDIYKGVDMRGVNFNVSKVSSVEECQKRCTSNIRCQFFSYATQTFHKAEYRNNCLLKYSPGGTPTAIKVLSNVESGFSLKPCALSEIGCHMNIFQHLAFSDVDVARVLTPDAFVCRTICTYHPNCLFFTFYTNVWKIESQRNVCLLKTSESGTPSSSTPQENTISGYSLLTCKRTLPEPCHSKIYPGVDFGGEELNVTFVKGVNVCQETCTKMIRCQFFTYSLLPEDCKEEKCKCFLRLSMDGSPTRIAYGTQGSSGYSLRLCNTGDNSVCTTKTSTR
Sequence of Factor XIa (P03951 388-625): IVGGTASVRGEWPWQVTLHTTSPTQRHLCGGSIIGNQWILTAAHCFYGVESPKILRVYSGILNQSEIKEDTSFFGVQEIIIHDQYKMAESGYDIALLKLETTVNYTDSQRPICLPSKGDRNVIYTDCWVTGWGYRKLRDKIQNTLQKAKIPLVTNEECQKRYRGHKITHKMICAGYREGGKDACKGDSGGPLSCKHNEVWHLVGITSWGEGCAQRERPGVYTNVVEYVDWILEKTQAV
Sequence of Factor XIa (P03951 19-387 partner): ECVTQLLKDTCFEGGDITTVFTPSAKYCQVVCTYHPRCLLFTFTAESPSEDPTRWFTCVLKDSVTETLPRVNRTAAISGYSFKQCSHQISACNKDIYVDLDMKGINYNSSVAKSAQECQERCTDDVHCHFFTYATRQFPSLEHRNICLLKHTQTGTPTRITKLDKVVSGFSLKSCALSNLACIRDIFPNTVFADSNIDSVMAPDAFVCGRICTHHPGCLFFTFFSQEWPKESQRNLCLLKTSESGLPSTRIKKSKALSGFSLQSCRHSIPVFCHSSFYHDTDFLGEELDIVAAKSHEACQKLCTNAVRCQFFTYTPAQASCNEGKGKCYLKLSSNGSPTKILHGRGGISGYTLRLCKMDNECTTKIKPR

Take `O=C1C=C(c2cc(Cl)ccc2-n2cnnn2)C[C@H]2CC[C@@H](c3nc(F)c(-c4ccnc(CO)c4F)[nH]3)N12` [Example 80, (3S,8aR)-7-[5-chloro-2-(tetrazol-1-yl)phenyl]-3-[4-fluoro-5-[3-fluoro-2-(hydroxymethyl)-4-pyridyl]-1H-imidazol-2-yl]-2,3,8,8a-tetrahydro-1H-indolizin-5-one]: the figures for the IC50 at Factor XIa and on human plasma kallikrein were 1.3 nM and 11.2 nM, respectively.

For the molecule `O=C1CCc2cc(-c3[nH]c([C@@H]4CC[C@@H]5CC(c6cc(Cl)ccc6-n6cc(C(F)(F)F)nn6)=CC(=O)N54)nc3F)ccc2N1` [Example 81, 6-[2-[(3S,8aR)-7-[5-chloro-2-[4-(trifluoromethyl)triazol-1-yl]phenyl]-5-oxo-2,3,8,8a-tetrahydro-1H-indolizin-3-yl]-4-fluoro-1H-imidazol-5-yl]-3,4-dihydro-1H-quinolin-2-one], the figures for the IC50 at Factor XIa and on human plasma kallikrein were 0.7 nM and 1.8 nM, respectively.

Regarding `O=C1C=C(c2cc(Cl)ccc2-n2cnnn2)C[C@H]2CC[C@@H](c3ncc(-c4ccc(NC56CC(C5)C6)nc4F)[nH]3)N12` [Example 83], the values for the IC50 at Factor XIa and at human plasma kallikrein were 17.4 nM and 57.5 nM, respectively.

Consider `CC(C)(O)CNc1nccc(-c2[nH]c([C@@H]3CC[C@@H]4CC(c5cc(Cl)ccc5-n5cnnn5)=CC(=O)N43)nc2F)c1F` [Example 84, (3S,8aR)-7-[5-chloro-2-(tetrazol-1-yl)phenyl]-3-[4-fluoro-5-[3-fluoro-2-[(2-hydroxy-2-methyl-propyl)amino]-4-pyridyl]-1H-imidazol-2-yl]-2,3,8,8a-tetrahydro-1H-indolizin-5-one], for which the IC50 at Factor XIa came to 0.3 nM; on human plasma kallikrein, 3 nM.

Turning to `O=C1C=C(c2c(-n3cnnn3)ccc(Cl)c2F)C[C@H]2CC[C@@H](c3ncc(-c4ccnc(-n5ccnn5)c4)[nH]3)N12` [Example 85, (3S,8aR)-7-[3-chloro-2-fluoro-6-(tetrazol-1-yl)phenyl]-3-[5-[2-(triazol-1-yl)-4-pyridyl]-1H-imidazol-2-yl]-2,3,8,8a-tetrahydro-1H-indolizin-5-one], the IC50 is 11.1 nM at Factor XIa and 8.9 nM on human plasma kallikrein.

`O=C1C=C(c2c(-n3cnnn3)ccc(Cl)c2F)C[C@H]2CC[C@@H](c3ncc(-c4ccnc(-n5nccn5)c4)[nH]3)N12` [Example 86, (3S,8aR)-7-[3-chloro-2-fluoro-6-(tetrazol-1-yl)phenyl]-3-[5-[2-(triazol-2-yl)-4-pyridyl]-1H-imidazol-2-yl]-2,3,8,8a-tetrahydro-1H-indolizin-5-one]: the IC50 on Factor XIa came out at 4.6 nM; on human plasma kallikrein, 3.2 nM.

`O=C1C=C(c2c(-n3cnnn3)ccc(Cl)c2F)C[C@H]2CC[C@@H](c3nc(F)c(-c4ccnc(-n5nccn5)c4)[nH]3)N12` [Example 87, (3S,8aR)-7-[3-chloro-2-fluoro-6-(tetrazol-1-yl)phenyl]-3-[4-fluoro-5-[2-(triazol-2-yl)-4-pyridyl]-1H-imidazol-2-yl]-2,3,8,8a-tetrahydro-1H-indolizin-5-one]: the IC50 is 0.9 nM at Factor XIa and 1.6 nM at human plasma kallikrein.

For `O=C1C=C(c2c(-n3cnnn3)ccc(Cl)c2F)C[C@H]2CC[C@@H](c3nc(F)c(-c4ccnc(-n5cccn5)c4)[nH]3)N12` [Example 88, (3S,8aR)-7-[3-chloro-2-fluoro-6-(tetrazol-1-yl)phenyl]-3-[4 fluoro-5-(2-pyrazol-1-yl-4-pyridyl)-1H-imidazol-2-yl]-2,3,8,8a-tetrahydro-1H-indolizin-5-one], the figures for the concentration for half-maximal inhibition (IC50) on Factor XIa and at human plasma kallikrein were 1.5 nM and 1.9 nM, respectively.

In the case of `CC(C)(CO)Nc1nccc(-c2cnc([C@@H]3CC[C@@H]4CC(c5c(-n6cnnn6)ccc(Cl)c5F)=CC(=O)N43)[nH]2)c1F` [Example 89, (3S,8aR)-7-[3-chloro-2-fluoro-6-(tetrazol-1-yl)phenyl]-3-[5-[3-fluoro-2-[(2-hydroxy-1,1-dimethyl-ethyl)amino]-4-pyridyl]-1H-imidazol-2-yl]-2,3,8,8a-tetrahydro-1H-indolizin-5-one], the concentration for half-maximal inhibition (IC50) at Factor XIa is 5.8 nM; on human plasma kallikrein it was 7.4 nM.

Regarding `O=C1C=C(c2c(-n3cnnn3)ccc(Cl)c2F)C[C@H]2CC[C@@H](c3ncc(-c4ccnc(-n5cccn5)c4)[nH]3)N12` [Example 93, (3S,8aR)-3-(5-(2-(1H-pyrazol-1-yl)pyridin-4-yl)-1H-imidazol-2-yl)-7-(3-chloro-2-fluoro-6-(1H-tetrazol-1-yl)phenyl)-2,3,8,8a-tetrahydroindolizin-5(1H)-one], the IC50 is 10.3 nM at Factor XIa and 3.1 nM on human plasma kallikrein.

In the case of `O=C(c1nccc(-c2cnc([C@@H]3CC[C@@H]4CC(c5c(-n6cnnn6)ccc(Cl)c5F)=CC(=O)N43)[nH]2)c1F)N1CC(F)(F)C1` [Example 94, (3S,8aR)-7-(3-Chloro-2-fluoro-6-(1H-tetrazol-1-yl)phenyl)-3-(5-(2-(3,3-difluoroazetidine-1-carbonyl)-3-fluoropyridin-4-yl)-1H-imidazol-2-yl)-2,3,8,8a-tetrahydroindolizin-5(1H)-one], the IC50 at Factor XIa came to 12.3 nM; at human plasma kallikrein, 122 nM.

`CC1(O)CCc2c(-c3cnc(C4CCC5CC(c6c(-n7cnnn7)ccc(Cl)c6F)=CC(=O)N54)[nH]3)ccnc21` (stereo not shown) [Example 95, 7-(3-Chloro-2-fluoro-6-(1H-tetrazol-1-yl)phenyl)-3-(5-(7-hydroxy-7-methyl-6,7-dihydro-5H-cyclopenta[b]pyridin-4-yl)-1H-imidazol-2-yl)-2,3,8,8a-tetrahydroindolizin-5(1H)-one]: the results for the IC50 at Factor XIa and at human plasma kallikrein were 3.5 nM and 23.9 nM, respectively.

With `O=C1C=C(c2cc(Cl)ccc2-n2cnnn2)C[C@H]2CC[C@@H](c3ncc(-c4ccnc(NC56CC(C5)C6)c4F)[nH]3)N12` [Example 96, (3S,8aR)-3-(5-(2-(Bicyclo[1.1.1]pentan-1-ylamino)-3-fluoropyridin-4-yl)-1H-imidazol-2-yl)-7-(5-chloro-2-(1H-tetrazol-1-yl)phenyl)-2,3,8,8a-tetrahydroindolizin-5(1H)-one], the IC50 on Factor XIa is 5.4 nM; on human plasma kallikrein it was 2.6 nM.

For the molecule `O=C1CCc2cc(-c3cnc([C@@H]4CC[C@@H]5CC(c6cc(Cl)ccc6-n6cc(C(F)(F)F)nn6)=CC(=O)N54)[nH]3)ccc2N1` [Example 97, 6-(2-((3S,8aR)-7-(5-chloro-2-(4-(trifluoromethyl)-1H-1,2,3-triazol-1-yl)phenyl)-5-oxo-1,2,3,5,8,8a-hexahydroindolizin-3-yl)-1H-imidazol-5-yl)-3,4-dihydroquinolin-2(1H)-one], the IC50 was 1.6 nM on Factor XIa and 4.6 nM at human plasma kallikrein.

Turning to `COC(=O)Nc1cc(-c2cnc([C@@H]3CC[C@@H]4CC(c5c(-n6cnnn6)ccc(Cl)c5F)=CC(=O)N43)[nH]2)ccn1` [Example 99, Methyl (4-(2-((3S,8aR)-7-(3-chloro-2-fluoro-6-(1H-tetrazol-1-yl)phenyl)-5-oxo-1,2,3,5,8,8a-hexahydroindolizin-3-yl)-1H-imidazol-5-yl)pyridin-2-yl)carbamate], the figures for the IC50 at Factor XIa and at human plasma kallikrein were 2.3 nM and 3.2 nM, respectively.

For the molecule `O=C1C=C(c2cc(Cl)ccc2-n2cc(C(F)(F)F)nn2)C[C@H]2CC[C@@H](c3ncc(-c4ccc5[nH]c(=O)ccc5c4)[nH]3)N12` [Example 101, 6-(2-((3S,8aR)-7-(5-chloro-2-(4-(trifluoromethyl)-1H-1,2,3-triazol-1-yl)phenyl)-5-oxo-1,2,3,5,8,8a-hexahydroindolizin-3-yl)-1H-imidazol-5-yl)quinolin-2(1H)-one], the IC50 stood at 0.6 nM on Factor XIa and 1.9 nM on human plasma kallikrein.

Regarding `CONC(=O)c1nccc(-c2cnc([C@@H]3CC[C@@H]4CC(c5c(-n6cnnn6)ccc(Cl)c5F)=CC(=O)N43)[nH]2)c1F` [Example 103, 4-[2-[(3S,8aR)-7-[3-Chloro-2-fluoro-6-(tetrazol-1-yl)phenyl]-5-oxo-2,3,8,8a-tetrahydro-1H-indolizin-3-yl]-1H-imidazol-5-yl]-3-fluoro-N-methoxy-pyridine-2-carboxamide], the IC50 stood at 1.6 nM on Factor XIa and 53.1 nM on human plasma kallikrein.

For `O=C(NC12CC(C1)C2)c1nccc(-c2cnc([C@@H]3CC[C@@H]4CC(c5c(-n6cnnn6)ccc(Cl)c5F)=CC(=O)N43)[nH]2)c1F` [Example 104, N-(bicyclo[1.1.1]pentan-1-yl)-4-(2-((3S,8aR)-7-(3-chloro-2-fluoro-6-(1H-tetrazol-1-yl)phenyl)-5-oxo-1,2,3,5,8,8a-hexahydroindolizin-3-yl)-1H-imidazol-5-yl)-3-fluoropicolinamide], the IC50 on Factor XIa amounted to 16.6 nM; on human plasma kallikrein, 35.4 nM.

On to `O=C1CCCN1c1nccc(-c2cnc([C@@H]3CC[C@H]4CC(c5c(-n6cnnn6)ccc(Cl)c5F)=CC(=O)N43)[nH]2)c1F` [Example 105, (3S,8aS)-7-(3-chloro-2-fluoro-6-(1H-tetrazol-1-yl)phenyl)-3-(5-(3-fluoro-2-(2-oxopyrrolidin-1-yl)pyridin-4-yl)-1H-imidazol-2-yl)-2,3,8,8a-tetrahydroindolizin-5(1H)-one], for which the IC50 on Factor XIa turned out to be 62.9 nM; at human plasma kallikrein it was 125 nM.

`O=C1CCCN1c1nccc(-c2cnc([C@@H]3CC[C@@H]4CC(c5c(-n6cnnn6)ccc(Cl)c5F)=CC(=O)N43)[nH]2)c1F` [Example 106, (3S,8aR)-7-(3-chloro-2-fluoro-6-(1H-tetrazol-1-yl)phenyl)-3-(5-(3-fluoro-2-(2-oxopyrrolidin-1-yl)pyridin-4-yl)-1H-imidazol-2-yl)-2,3,8,8a-tetrahydroindolizin-5(1H)-one]: the results for the IC50 on Factor XIa and on human plasma kallikrein were 11 nM and 27 nM, respectively.
